From patent US9546156B2, “N-bicyclic aryl,N'-pyrazolyl urea, thiourea, guanidine cyanoguanidine compounds as TrkA kinase inhibitors” (Array BioPharma Inc., priority 2012, dated 2017)

Tests used:
Assay in all cases: Off-target kinase profiling (KinaseProfiler)
Type in all cases: biochemical
Conditions in all cases: 10 μM, ATP near Km
[1] = target: T1, ALK (Homo sapiens, UniProt Q9UM73)
T1 construct: purchased Millipore, Inc. (KinaseProfiler service)
Method: (§1) A representative compound (Example 16) of the invention was tested for off-target kinase activity at a concentration of 10 μM by Millipore, Inc. in their KinaseProfiler™ service against all the kinases available in their full kinase panel. The compound was run in duplicate at a concentration of ATP near the Km for each individual kinase according to Millipore's specifications. The results are shown in Table B. Data are reported as percent of control (POC) and are the average of the two replicates.

[2] = target: T2, CDK2/cyclinA (Homo sapiens, UniProt P24941)
T2 construct: purchased Millipore, Inc. (KinaseProfiler service)
Method: as §1

[3] = target: T3, CDK9/cyclinT1 (Homo sapiens, UniProt P50750)
T3 construct: purchased Millipore, Inc. (KinaseProfiler service)
Method: as §1

[4] = target: T4, CK1gamma3 (Homo sapiens, UniProt Q9Y6M4)
T4 construct: purchased Millipore, Inc. (KinaseProfiler service)
Method: as §1

[5] = target: T5, CLK3 (Homo sapiens, UniProt P49761)
T5 construct: purchased Millipore, Inc. (KinaseProfiler service)
Method: as §1

[6] = target: T6, DAPK1 (Homo sapiens, UniProt P53355)
T6 construct: purchased Millipore, Inc. (KinaseProfiler service)
Method: as §1

[7] = target: T7, DDR2 (Homo sapiens, UniProt Q16832)
T7 construct: purchased Millipore, Inc. (KinaseProfiler service)
Method: as §1

[8] = target: T8, EGFR (Homo sapiens, UniProt P00533)
T8 construct: purchased Millipore, Inc. (KinaseProfiler service)
Method: as §1

[9] = target: T9, ERK1 (Homo sapiens, UniProt P27361)
T9 construct: purchased Millipore, Inc. (KinaseProfiler service)
Method: as §1

[10] = target: T10, EphB2 (Homo sapiens, UniProt P29323)
T10 construct: purchased Millipore, Inc. (KinaseProfiler service)
Method: as §1

[11] = target: T11, Fer (Homo sapiens, UniProt P16591)
T11 construct: purchased Millipore, Inc. (KinaseProfiler service)
Method: as §1

[12] = target: T12, Hck (Homo sapiens, UniProt P08631)
T12 construct: purchased Millipore, Inc. (KinaseProfiler service)
Method: as §1

[13] = target: T13, IKKbeta (Homo sapiens, UniProt O14920)
T13 construct: purchased Millipore, Inc. (KinaseProfiler service)
Method: as §1

[14] = target: T14, JAK2 (Homo sapiens, UniProt O60674)
T14 construct: purchased Millipore, Inc. (KinaseProfiler service)
Method: as §1

[15] = target: T15, JAK3 (Homo sapiens, UniProt P52333)
T15 construct: purchased Millipore, Inc. (KinaseProfiler service)
Method: as §1

[16] = target: T16, MAPKAP-K2 (Homo sapiens, UniProt P49137)
T16 construct: purchased Millipore, Inc. (KinaseProfiler service)
Method: as §1

[17] = target: T17, MEK1 (Homo sapiens, UniProt Q02750)
T17 construct: purchased Millipore, Inc. (KinaseProfiler service)
Method: as §1

[18] = target: T18, MRCKbeta (Homo sapiens, UniProt Q9Y5S2)
T18 construct: purchased Millipore, Inc. (KinaseProfiler service)
Method: as §1

[19] = target: T19, MST1 (Homo sapiens, UniProt Q13043)
T19 construct: purchased Millipore, Inc. (KinaseProfiler service)
Method: as §1

[20] = target: T20, NEK3 (Homo sapiens, UniProt P51956)
T20 construct: purchased Millipore, Inc. (KinaseProfiler service)
Method: as §1

[21] = target: T21, NEK6 (Homo sapiens, UniProt Q9HC98)
T21 construct: purchased Millipore, Inc. (KinaseProfiler service)
Method: as §1

[22] = target: T22, NEK7 (Homo sapiens, UniProt Q8TDX7)
T22 construct: purchased Millipore, Inc. (KinaseProfiler service)
Method: as §1

[23] = target: T23, PDGFRbeta (Homo sapiens, UniProt P09619)
T23 construct: purchased Millipore, Inc. (KinaseProfiler service)
Method: as §1

[24] = target: T24, PKCalpha (Homo sapiens, UniProt P17252)
T24 construct: purchased Millipore, Inc. (KinaseProfiler service)
Method: as §1

[25] = target: T25, PKCbetaI (Homo sapiens, UniProt P05771)
T25 construct: purchased Millipore, Inc. (KinaseProfiler service)
Method: as §1

[26] = target: T26, PKCiota (Homo sapiens, UniProt P41743)
T26 construct: purchased Millipore, Inc. (KinaseProfiler service)
Method: as §1

[27] = target: T27, PKD1 (Homo sapiens, UniProt Q15139)
T27 construct: purchased Millipore, Inc. (KinaseProfiler service)
Method: as §1

[28] = target: T28, Pim-3 (Homo sapiens, UniProt Q86V86)
T28 construct: purchased Millipore, Inc. (KinaseProfiler service)
Method: as §1

[29] = target: T29, Rse (Homo sapiens, UniProt Q06418)
T29 construct: purchased Millipore, Inc. (KinaseProfiler service)
Method: as §1

[30] = target: T30, Rsk2 (Homo sapiens, UniProt P51812)
T30 construct: purchased Millipore, Inc. (KinaseProfiler service)
Method: as §1

[31] = target: T31, SIK (Homo sapiens, UniProt P57059)
T31 construct: purchased Millipore, Inc. (KinaseProfiler service)
Method: as §1

[32] = target: T32, SRPK1 (Homo sapiens, UniProt Q96SB4)
T32 construct: purchased Millipore, Inc. (KinaseProfiler service)
Method: as §1

[33] = target: T33, Syk (Homo sapiens, UniProt P43405)
T33 construct: purchased Millipore, Inc. (KinaseProfiler service)
Method: as §1

[34] = target: T34, TBK1 (Homo sapiens, UniProt Q9UHD2)
T34 construct: purchased Millipore, Inc. (KinaseProfiler service)
Method: as §1

[35] = target: T35, Tie2 (Homo sapiens, UniProt Q02763)
T35 construct: purchased Millipore, Inc. (KinaseProfiler service)
Method: as §1

[36] = target: T36, Txk (Homo sapiens, UniProt P42681)
T36 construct: purchased Millipore, Inc. (KinaseProfiler service)
Method: as §1

[37] = target: T37, ULK3 (Homo sapiens, UniProt Q6PHR2)
T37 construct: purchased Millipore, Inc. (KinaseProfiler service)
Method: as §1

[38] = target: T38, ZAP-70 (Homo sapiens, UniProt P43403)
T38 construct: purchased Millipore, Inc. (KinaseProfiler service)
Method: as §1

[39] = target: T39, c-RAF (Homo sapiens, UniProt P04049, Y340D/Y341D)
T39 construct: purchased Millipore, Inc. (KinaseProfiler service)
Method: as §1

[40] = target: T40, eEF-2K (Homo sapiens, UniProt O00418)
T40 construct: purchased Millipore, Inc. (KinaseProfiler service)
Method: as §1

[41] = target: T41, mTOR (Homo sapiens, UniProt P42345)
T41 construct: purchased Millipore, Inc. (KinaseProfiler service)
Method: as §1

T1 sequence (Q9UM73 19-1620): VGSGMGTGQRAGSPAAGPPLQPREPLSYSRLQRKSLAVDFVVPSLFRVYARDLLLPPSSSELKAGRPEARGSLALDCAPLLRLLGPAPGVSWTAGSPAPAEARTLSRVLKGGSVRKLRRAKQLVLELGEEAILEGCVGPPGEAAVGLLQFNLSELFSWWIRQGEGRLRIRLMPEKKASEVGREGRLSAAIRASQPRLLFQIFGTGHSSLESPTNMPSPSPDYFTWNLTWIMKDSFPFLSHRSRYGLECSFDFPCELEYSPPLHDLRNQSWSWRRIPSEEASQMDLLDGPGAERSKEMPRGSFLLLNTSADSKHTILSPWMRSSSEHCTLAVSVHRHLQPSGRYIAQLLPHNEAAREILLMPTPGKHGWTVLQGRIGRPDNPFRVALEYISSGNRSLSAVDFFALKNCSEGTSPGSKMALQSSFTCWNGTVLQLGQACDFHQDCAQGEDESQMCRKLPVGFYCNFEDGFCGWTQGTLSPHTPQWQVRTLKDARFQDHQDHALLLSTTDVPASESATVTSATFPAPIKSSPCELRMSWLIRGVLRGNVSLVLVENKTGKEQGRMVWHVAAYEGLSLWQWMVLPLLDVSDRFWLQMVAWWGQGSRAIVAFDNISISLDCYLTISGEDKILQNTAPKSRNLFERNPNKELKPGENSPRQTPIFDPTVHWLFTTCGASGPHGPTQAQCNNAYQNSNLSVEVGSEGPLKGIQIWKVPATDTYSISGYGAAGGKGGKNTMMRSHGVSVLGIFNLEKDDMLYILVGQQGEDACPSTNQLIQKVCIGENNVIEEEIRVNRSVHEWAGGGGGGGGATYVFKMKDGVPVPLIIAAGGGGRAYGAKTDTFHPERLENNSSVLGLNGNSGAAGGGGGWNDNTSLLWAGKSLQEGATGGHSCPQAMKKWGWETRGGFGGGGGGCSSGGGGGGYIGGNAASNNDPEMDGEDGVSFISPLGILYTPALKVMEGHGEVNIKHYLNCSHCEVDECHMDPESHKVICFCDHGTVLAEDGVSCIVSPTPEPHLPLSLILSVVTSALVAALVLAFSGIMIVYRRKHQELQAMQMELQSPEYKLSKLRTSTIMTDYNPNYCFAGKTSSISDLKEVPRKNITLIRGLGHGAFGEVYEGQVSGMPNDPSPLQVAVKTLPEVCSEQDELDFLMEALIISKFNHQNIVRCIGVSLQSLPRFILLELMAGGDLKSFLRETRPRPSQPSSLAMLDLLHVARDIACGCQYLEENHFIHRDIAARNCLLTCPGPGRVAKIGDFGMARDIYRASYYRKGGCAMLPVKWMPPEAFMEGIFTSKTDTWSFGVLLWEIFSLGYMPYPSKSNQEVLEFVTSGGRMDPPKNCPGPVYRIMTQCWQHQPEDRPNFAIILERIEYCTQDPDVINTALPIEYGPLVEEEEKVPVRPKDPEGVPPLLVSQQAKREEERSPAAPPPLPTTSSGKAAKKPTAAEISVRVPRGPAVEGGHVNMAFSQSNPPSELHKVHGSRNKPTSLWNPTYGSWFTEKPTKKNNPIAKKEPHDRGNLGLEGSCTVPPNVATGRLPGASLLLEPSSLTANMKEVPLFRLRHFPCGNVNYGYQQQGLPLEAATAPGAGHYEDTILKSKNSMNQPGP
T11 sequence (P16591 whole entry): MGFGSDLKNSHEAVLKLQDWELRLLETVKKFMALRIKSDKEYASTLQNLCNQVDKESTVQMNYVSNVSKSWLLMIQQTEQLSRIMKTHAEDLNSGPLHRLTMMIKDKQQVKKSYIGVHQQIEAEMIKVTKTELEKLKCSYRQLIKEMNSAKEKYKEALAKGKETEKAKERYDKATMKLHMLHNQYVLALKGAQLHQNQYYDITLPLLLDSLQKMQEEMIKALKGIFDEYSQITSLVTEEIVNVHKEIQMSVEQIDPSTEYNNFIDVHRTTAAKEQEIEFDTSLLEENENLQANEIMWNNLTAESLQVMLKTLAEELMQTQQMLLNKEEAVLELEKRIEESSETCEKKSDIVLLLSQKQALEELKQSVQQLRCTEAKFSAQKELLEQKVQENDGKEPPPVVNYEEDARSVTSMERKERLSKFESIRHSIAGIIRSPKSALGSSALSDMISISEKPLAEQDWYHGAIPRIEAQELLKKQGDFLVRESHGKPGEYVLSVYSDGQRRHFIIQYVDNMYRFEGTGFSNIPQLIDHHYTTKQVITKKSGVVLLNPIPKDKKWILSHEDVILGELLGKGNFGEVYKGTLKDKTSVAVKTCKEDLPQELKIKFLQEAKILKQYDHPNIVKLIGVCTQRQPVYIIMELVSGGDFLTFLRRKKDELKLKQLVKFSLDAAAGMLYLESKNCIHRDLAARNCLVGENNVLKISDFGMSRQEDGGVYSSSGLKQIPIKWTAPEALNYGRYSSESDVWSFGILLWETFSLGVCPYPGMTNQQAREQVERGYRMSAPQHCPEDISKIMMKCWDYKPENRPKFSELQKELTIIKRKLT
T8 sequence (P00533 25-1210): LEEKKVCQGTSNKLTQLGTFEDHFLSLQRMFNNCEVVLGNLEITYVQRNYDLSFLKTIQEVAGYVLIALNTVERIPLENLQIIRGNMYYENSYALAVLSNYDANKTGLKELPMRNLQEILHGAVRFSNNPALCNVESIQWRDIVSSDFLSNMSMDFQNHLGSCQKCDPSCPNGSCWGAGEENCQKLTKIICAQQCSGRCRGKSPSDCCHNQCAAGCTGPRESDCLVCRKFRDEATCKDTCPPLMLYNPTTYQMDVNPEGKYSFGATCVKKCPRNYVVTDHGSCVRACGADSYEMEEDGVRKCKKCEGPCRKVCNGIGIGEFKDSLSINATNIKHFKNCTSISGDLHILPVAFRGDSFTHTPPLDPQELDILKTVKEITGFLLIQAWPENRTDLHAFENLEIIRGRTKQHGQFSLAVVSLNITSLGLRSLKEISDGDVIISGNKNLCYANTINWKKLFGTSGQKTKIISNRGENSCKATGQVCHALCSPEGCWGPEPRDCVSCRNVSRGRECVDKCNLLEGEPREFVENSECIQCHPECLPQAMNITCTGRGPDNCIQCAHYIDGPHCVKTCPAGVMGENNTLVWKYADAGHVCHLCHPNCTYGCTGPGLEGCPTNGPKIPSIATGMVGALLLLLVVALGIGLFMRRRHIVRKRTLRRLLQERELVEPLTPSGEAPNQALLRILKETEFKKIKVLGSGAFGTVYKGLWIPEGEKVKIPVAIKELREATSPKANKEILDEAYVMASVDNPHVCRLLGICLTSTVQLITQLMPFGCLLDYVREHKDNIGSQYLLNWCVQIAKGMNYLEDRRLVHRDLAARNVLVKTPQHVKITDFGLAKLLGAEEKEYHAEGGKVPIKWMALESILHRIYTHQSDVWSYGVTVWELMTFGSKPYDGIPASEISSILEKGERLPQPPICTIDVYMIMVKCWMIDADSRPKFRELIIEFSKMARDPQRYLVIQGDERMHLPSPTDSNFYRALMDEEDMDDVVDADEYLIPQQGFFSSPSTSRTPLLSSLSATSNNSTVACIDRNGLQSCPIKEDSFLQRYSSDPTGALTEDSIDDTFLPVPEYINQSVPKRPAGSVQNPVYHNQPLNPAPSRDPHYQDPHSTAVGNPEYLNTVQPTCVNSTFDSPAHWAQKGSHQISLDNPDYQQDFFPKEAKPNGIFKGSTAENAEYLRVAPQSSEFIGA
T31 sequence (P57059 whole entry): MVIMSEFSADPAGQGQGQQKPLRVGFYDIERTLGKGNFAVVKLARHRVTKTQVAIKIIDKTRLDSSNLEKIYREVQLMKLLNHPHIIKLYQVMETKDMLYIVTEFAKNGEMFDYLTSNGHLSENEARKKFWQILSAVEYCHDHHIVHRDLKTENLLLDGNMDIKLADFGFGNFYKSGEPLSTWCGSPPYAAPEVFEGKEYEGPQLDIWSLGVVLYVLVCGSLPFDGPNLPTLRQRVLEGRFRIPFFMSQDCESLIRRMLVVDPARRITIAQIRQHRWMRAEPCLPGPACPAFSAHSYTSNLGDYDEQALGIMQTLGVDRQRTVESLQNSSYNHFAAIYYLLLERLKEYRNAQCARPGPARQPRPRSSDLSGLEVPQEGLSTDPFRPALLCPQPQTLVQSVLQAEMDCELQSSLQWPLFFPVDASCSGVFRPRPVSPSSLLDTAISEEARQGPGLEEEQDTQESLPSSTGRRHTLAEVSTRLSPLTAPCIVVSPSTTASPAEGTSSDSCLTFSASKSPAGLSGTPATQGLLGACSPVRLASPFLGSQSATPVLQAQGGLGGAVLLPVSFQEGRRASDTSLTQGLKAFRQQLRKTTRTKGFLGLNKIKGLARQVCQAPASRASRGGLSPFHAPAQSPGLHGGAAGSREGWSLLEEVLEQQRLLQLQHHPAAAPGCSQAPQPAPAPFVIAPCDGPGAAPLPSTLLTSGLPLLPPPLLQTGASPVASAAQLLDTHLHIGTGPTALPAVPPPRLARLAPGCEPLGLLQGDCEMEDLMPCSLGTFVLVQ
T17 sequence (Q02750 whole entry): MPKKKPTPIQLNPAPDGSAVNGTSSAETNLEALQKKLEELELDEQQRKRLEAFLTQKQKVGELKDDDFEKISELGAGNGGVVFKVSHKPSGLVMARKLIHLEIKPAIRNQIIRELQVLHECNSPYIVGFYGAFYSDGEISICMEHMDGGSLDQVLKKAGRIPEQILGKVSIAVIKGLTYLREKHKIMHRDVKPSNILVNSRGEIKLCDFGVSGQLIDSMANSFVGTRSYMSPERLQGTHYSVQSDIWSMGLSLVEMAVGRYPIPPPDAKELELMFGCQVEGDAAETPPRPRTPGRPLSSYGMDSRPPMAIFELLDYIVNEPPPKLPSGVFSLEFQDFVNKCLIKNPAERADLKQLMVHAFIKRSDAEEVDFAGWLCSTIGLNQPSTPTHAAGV
T21 sequence (Q9HC98 whole entry): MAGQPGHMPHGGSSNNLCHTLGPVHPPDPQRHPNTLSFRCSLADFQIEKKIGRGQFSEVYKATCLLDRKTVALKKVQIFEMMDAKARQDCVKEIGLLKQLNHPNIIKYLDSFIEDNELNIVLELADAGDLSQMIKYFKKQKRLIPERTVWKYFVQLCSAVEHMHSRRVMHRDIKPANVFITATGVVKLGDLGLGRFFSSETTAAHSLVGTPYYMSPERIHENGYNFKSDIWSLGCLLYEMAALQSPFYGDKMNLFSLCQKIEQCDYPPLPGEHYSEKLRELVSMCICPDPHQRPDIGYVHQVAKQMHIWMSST

Avg POC [1]: 114.5 POC
Avg POC [2]: 136 POC
Avg POC [3]: 114.5 POC
Avg POC [4]: 120 POC
Avg POC [5]: 107 POC
Avg POC [6]: 118 POC
Avg POC [7]: 117.5 POC
Avg POC [8]: 106 POC
Avg POC [9]: 110 POC
Avg POC [10]: 109 POC
Avg POC [11]: 122 POC
Avg POC [12]: 135.5 POC
Avg POC [13]: 130.5 POC
Avg POC [14]: 181 POC
Avg POC [15]: 131.5 POC
Avg POC [16]: 128 POC
Avg POC [17]: 114 POC
Avg POC [18]: 119 POC
Avg POC [19]: 111.5 POC
Avg POC [20]: 122 POC
Avg POC [21]: 120 POC
Avg POC [22]: 123 POC
Avg POC [23]: 136.5 POC
Avg POC [24]: 97 POC
Avg POC [25]: 97 POC
Avg POC [26]: 109 POC
Avg POC [27]: 117.5 POC
Avg POC [28]: 113.5 POC
Avg POC [29]: 120.5 POC
Avg POC [30]: 139.5 POC
Avg POC [31]: 121 POC
Avg POC [32]: 119 POC
Avg POC [33]: 117.5 POC
Avg POC [34]: 121.5 POC
Avg POC [35]: 148.5 POC
Avg POC [36]: 131 POC
Avg POC [37]: 98.5 POC
Avg POC [38]: 118 POC
Avg POC [39]: 114 POC
Avg POC [40]: 145.5 POC
Avg POC [41]: 110 POC
Structure (SMILES): COCc1ccc2cccc(NC(=O)Nc3c(C)c(-c4cnn(C)c4)nn3-c3ccccc3)c2c1 [Example 16, 1-(1′,4-dimethyl-1-phenyl-1H,1′H-[3,4′-bipyrazol]-5-yl)-3-(7-(methoxymethyl)naphthalen-1-yl)urea]
